What was measured:
[1] = test system: T47D cells; assay: Proliferation / arrest in Go/G1 in T47D cells; assay type: cell-based, human; design: key to Arrest in Go/G1: ↓/↑ - decreased/increased action of tested compounds.; ↓/↑ - decreased/increased action of tested compounds; conditions: Proliferation; T47D cells; statistical significance not always reached
[2] = target: T1, PR-B – NCoR (Homo sapiens, UniProt P06401); assay: PR-B – NCoR interaction, two-hybrid system; assay type: cell-based
T1 construct: expressed in transfected cells
T1 sequence (P06401 whole entry): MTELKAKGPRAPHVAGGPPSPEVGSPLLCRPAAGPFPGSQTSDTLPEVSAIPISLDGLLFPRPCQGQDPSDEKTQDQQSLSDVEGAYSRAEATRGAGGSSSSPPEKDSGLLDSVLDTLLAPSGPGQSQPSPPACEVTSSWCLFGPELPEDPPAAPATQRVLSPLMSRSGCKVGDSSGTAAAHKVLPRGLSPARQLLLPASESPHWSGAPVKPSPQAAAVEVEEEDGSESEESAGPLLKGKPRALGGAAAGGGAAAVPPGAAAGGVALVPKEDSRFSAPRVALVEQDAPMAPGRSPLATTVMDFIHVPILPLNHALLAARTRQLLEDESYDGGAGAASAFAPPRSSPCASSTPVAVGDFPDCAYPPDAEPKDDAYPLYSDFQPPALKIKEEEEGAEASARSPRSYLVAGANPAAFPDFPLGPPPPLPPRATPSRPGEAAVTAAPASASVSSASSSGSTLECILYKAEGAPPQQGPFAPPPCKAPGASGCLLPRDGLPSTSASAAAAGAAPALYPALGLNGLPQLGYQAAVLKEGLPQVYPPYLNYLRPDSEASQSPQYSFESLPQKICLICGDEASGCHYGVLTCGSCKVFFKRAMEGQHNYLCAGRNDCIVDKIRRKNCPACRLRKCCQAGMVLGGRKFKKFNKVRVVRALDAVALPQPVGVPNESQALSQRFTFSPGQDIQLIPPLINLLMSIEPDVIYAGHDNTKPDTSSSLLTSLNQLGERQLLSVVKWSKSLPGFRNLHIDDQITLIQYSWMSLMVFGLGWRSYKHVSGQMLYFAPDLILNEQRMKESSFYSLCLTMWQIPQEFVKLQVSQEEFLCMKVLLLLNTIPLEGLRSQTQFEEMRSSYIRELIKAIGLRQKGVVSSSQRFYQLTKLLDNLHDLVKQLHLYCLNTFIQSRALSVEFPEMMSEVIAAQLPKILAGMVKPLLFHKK
T1 sequence (O75376 whole entry partner): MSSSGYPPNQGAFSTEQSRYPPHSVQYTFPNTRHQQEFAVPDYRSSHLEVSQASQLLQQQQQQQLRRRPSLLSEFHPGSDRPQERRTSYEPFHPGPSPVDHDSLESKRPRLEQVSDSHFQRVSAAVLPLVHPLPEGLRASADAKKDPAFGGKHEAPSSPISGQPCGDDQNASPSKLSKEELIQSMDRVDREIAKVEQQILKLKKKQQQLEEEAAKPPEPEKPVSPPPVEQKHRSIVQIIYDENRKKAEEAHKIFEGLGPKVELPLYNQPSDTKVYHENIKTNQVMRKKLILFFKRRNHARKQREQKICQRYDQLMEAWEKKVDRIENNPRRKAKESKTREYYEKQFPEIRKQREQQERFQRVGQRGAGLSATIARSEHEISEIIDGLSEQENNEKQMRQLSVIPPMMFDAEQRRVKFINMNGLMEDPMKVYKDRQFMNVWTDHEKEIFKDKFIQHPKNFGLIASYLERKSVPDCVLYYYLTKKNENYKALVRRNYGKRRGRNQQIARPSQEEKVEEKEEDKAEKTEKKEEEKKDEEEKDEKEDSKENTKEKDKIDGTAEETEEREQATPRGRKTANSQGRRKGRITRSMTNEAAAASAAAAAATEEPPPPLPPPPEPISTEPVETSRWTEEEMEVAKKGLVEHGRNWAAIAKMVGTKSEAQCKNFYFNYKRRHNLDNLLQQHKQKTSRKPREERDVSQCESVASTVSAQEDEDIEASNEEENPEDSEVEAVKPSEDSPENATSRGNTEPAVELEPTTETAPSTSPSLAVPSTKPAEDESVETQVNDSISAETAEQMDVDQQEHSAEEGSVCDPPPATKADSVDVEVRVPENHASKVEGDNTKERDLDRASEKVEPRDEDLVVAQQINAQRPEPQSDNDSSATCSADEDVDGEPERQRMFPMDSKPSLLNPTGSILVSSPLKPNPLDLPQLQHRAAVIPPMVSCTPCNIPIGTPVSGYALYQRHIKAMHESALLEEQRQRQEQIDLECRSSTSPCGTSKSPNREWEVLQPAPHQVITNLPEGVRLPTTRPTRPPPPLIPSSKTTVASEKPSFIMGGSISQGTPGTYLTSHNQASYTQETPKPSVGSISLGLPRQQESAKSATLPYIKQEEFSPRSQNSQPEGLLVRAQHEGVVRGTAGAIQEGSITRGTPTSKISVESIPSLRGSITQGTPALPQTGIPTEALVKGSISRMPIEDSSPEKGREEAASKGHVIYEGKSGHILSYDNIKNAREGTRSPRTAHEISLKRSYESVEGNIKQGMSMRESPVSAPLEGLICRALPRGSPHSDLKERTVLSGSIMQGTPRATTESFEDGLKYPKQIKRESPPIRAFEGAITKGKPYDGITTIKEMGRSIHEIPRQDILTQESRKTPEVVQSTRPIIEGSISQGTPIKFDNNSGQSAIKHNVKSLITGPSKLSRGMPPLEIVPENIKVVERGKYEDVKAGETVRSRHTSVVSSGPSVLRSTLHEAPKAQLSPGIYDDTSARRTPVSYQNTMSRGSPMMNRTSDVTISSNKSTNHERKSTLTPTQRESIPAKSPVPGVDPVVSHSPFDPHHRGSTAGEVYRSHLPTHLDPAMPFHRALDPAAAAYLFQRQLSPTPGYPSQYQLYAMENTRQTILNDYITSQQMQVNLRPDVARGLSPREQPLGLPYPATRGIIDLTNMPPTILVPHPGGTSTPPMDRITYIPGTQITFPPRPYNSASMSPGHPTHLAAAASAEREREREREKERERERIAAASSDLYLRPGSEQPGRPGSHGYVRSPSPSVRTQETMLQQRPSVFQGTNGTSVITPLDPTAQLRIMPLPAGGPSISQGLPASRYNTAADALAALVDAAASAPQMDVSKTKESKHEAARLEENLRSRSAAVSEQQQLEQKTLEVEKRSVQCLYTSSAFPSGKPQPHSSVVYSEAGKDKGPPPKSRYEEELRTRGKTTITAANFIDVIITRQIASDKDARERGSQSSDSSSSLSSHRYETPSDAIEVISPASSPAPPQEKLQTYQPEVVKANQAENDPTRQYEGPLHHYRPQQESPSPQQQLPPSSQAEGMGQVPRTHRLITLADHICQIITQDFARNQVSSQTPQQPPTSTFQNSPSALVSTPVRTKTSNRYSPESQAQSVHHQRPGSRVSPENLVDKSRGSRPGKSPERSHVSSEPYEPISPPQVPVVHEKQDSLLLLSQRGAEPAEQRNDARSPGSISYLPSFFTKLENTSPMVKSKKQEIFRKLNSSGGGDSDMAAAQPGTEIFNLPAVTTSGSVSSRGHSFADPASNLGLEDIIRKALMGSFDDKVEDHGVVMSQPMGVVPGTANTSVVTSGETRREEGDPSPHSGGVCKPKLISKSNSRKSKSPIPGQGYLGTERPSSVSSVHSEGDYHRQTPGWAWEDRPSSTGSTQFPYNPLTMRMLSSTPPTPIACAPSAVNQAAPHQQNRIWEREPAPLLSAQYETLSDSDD
Excerpt: The active recruitment of the nuclear corepressor NCoR results in transcriptional inactivity of the PR. So, the potency of PR ligands to induce the interaction of PR with NCoR provides information on the antagonistic potency of the ligand. Therefore, the capacity of EC313 to induce the interaction of PR-B with the corepressor NCoR in comparison with reference ligands was studied. All test compounds except the receptor agonist Promegestone induced PR to interact with NCoR.
Figure 11 (A) PR-B interaction with NCoR using a two-hybrid assay. Dose response curve. […] (B) Liganded PR-Binteraction with c-SRC kinase. The data presented are from five independent experiments. Signals are represented as mean luminescence ± SD normalized to maximal promegestone activity equal to 100%.

[3] = test system: estrogen-primed endometrium of immature rabbits; assay: McPhail assay, estrogen-primed rabbit endometrium; assay type: in vivo; conditions: for Score 2 for PR-agonistic activity / Score 2 for PR-antagonistic activity: dose giving McPhail score 2; for Score 2 for PR-antagonistic activity: concomitant progesterone (1 g/animal/day [sic] s.c.)
Protocol: The secretory transformation of estrogen-primed endometrium of immature rabbits indicates the strength of the progestagenic action on the endometrium of the chosen test compound. The simultaneous administration of test compounds with progesterone can indicate potential anti-progestagenic actions.
Female rabbits received daily s.c. injections of 5.0 µg 17β-Estradiol/per animal for 6 days leading to the proliferation of the endometrium. From day 7 to day 13 the animals received doses of vehicle, EC313 (1 to 30 mg/animal/day s.c) or progesterone. On day 14, the animals were sacrificed and the uteri were processed for histological evaluation and the secretory endometrial transformation was rated according to a modified McPhail score (1 – 4).
The rating scale ranges from 1 (no or very low secretory, transformation, or agonistic activity) to 4 (highest secretory, transformation, or agonistic activity). The McPhail score of 2 (median) was selected for the comparison. The antagonistic activity was measured by the concomitant administration of progesterone ([…] s.c.).

[4] = target: T2, GR (Homo sapiens, UniProt P04150); assay: GR transactivation (HELA, MMTV-LUC); assay type: cell-based; design: HELA cells line carrying endogenous glucocorticoid protein; endogenous in cells; host or cells: HELA, stably transfected with the reporter only; conditions: comparative transactivation profile; read-out: Potency, GR Antagonism
T2 sequence (P04150 1-777): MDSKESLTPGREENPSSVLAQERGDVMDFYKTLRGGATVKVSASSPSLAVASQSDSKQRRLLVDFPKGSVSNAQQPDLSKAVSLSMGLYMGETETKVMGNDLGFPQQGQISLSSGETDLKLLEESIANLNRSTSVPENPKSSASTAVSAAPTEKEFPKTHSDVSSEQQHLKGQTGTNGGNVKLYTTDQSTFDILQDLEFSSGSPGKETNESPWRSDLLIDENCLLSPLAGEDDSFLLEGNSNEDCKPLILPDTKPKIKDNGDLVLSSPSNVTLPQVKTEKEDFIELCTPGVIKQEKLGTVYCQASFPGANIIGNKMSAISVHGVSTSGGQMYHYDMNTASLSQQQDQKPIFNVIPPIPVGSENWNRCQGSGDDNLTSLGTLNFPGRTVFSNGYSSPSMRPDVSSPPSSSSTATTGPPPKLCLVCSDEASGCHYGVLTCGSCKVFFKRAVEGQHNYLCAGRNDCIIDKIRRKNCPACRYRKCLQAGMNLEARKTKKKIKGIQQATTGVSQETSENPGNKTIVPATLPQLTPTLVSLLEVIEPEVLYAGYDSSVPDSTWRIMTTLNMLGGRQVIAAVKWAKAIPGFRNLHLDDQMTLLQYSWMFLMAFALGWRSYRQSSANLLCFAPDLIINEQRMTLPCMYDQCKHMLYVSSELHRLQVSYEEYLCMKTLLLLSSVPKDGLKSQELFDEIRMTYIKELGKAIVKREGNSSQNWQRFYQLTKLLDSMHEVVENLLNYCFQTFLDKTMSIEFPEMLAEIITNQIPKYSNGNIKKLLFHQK
Protocol: HELA cells line carrying endogenous glucocorticoid protein were cultured in order to study gene expression on the transcriptional level under the influence of the tested compounds. The cells were transfected with reporter vector MMTV/LUC. To produce high protein overexpression, stable transfection was carried out. […] Agonist and antagonist properties of EC313 toward tested receptor GR were analyzed using luminescence detection.
In order to develop the transfection assay, plasmids were generated and isolated. Vector pGL4.36 coding the glucocorticoid receptor responsive element MMTV and firefly luciferase reporter vector [luc2P/Hygro] were used as a reporter system (pGL4.36-MMTV/LUC). The cells were transfected with reporter vector MMTV/LUC.
stable transfection with reporter vector was performed on a 6-well plate (0.5x10^6 cells per well) in culture medium (EMEM, 10% FBS, NEAA, sodium […], L-glutamine). Briefly, according to the transfection procedure, cells were passaged, and they grew in a culture medium containing an appropriate concentration of the antibiotic (Hygromycin 150 µg/mL). Resistance to Hygromycin gene, which had been transfected together with the reporter vector to the cells, only allowed positively transfected cells to grow in this medium. Therefore, growing cell clones were selected for further steps as stable transfectants.
After 24h incubation of cells with the tested compounds, luciferase activity was measured using VICTOR™ X Multilabel Plate Reader -Perkin Elmer.

[5] = test system: cycling guinea pigs; assay: Ovulation inhibition in cycling guinea pigs; assay type: in vivo, guinea pig; conditions: cycle days 10-17
Protocol: Test compounds were administered once daily from cycle days 10-17 by s. c. injection using 0.2 mL vehicle (benzyl-benzoate/castor oil, ratio 1 + 4 v/v). The time of autopsy (day 18) was 24-48h after the expected ovulation at the end of the treatment cycle. This design permits the study of the effects of the tested compounds on the expected ovulation. Fresh CL were evidence of a recent ovulation.

[6] = test system: Cyclin D1 promotor; assay: Activation of Cyclin D1 promotor; assay type: cell-based, human; conditions: Other signal cascades

CCC(=O)[C@@]1(C)CC[C@H]2[C@@H]3CCC4=CC(=O)CCC4=C3CC[C@@]21C [Promegestone, reference compound]
Arrest in Go/G1 [1]: ↓
induction of PR interaction with NCoR [2]: does not induce NCoR interaction

C[C@]12C[C@H](c3ccc(S(C)(=O)=O)cc3)C3=C4CCC(=O)C=C4CC[C@H]3[C@@H]1CC[C@@]2(O)C(F)(F)C(F)(F)F [Vilaprisan, reference compound]
Score 2 for PR-agonistic activity [3]: n.a.;”pure” antagonist
Score 2 for PR-antagonistic activity [3]: < 0.3 mg/animal/day s.c.
IC50 [4]: 629 nM
Number of ovulations vs. number of inseminated females ([5]; 3.0 mg/animal/day s.c.): 0/5
Number of ovulations vs. number of inseminated females ([5]; 10.0 mg/animal/day s.c.): 0/4

C[C@]12C[C@H](c3ccc(-n4ccnc4)cc3)C3=C4CCC(=O)C=C4CCC3C1CC[C@@]2(O)C(F)(F)C(F)(F)F (stereo partly shown) [EC317]
Arrest in Go/G1 [1]: ↑
Activation of Cyclin D1 promotor [6]: unclear*
Number of ovulations vs. number of inseminated females ([5]; 0.1 mg/animal/day s.c.): 2/3
Number of ovulations vs. number of inseminated females ([5]; 0.3 mg/animal/day s.c.): 3/3
Number of ovulations vs. number of inseminated females ([5]; 1.0 mg/animal/day s.c.): 0/3
Number of ovulations vs. number of inseminated females ([5]; 3.0 mg/animal/day s.c.): 0/6
Number of ovulations vs. number of inseminated females ([5]; 10.0 mg/animal/day s.c.): 0/6

Telapristone acetate [CDB 4124 Telapristone acetate, reference compound]
Number of ovulations vs. number of inseminated females ([5]; 10.0 mg/animal/day s.c.): 1/3

COC[C@]1(OC)CC[C@H]2[C@@H]3CCC4=CC(=O)CCC4=C3[C@@H](c3ccc(/C=N/O)cc3)C[C@@]21C [Asoprisnil, reference compound]
Arrest in Go/G1 [1]: ↑
Quotient between antagonistic and agonistic action ([3]; McPhail score 2 doses): ~ 1.5
Score 2 for PR-agonistic activity [3]: ~ 0.2 mg/animal/day s.c.
Score 2 for PR-antagonistic activity [3]: ~ 0.3 mg/animal/day s.c.
efficacy relative to Ulipristal acetate, NCoR interaction [2]: 56%
induction of PR interaction with NCoR [2]: limited ability to induce progesterone receptor interaction with NCoR
IC50 [4]: 1230 nM

CC(=O)[C@H]1CC[C@H]2[C@@H]3CCC4=CC(=O)CC[C@]4(C)[C@H]3CC[C@]12C [Progesterone]
Score 2 for PR-agonistic activity [3]: ~ 0.1 mg/animal/day s.c.
Score 2 for PR-antagonistic activity [3]: n.a. “pure” agonist

CC#C[C@]1(O)CC[C@H]2[C@@H]3CCC4=CC(=O)CCC4=C3[C@@H](c3ccc(N(C)C)cc3)C[C@@]21C [Mifepristone, reference compound]
Arrest in Go/G1 [1]: ↑
Number of ovulations vs. number of inseminated females ([5]; 1.0 mg/animal/day s.c.): 4/5
Number of ovulations vs. number of inseminated females ([5]; 3.0 mg/animal/day s.c.): 2/5
Number of ovulations vs. number of inseminated females ([5]; 10.0 mg/animal/day s.c.): 0/3

Reference: paper PMC10520499, “Next step in the development of mesoprogestins: the preclinical profile of EC313” (Frontiers in Endocrinology, 2023)
